# Measurements taken from patent publication EP1148124A1 (priority 1999, dated 2000).
# Test system: aryl hydrocarbon receptor
# Test: Reporter assay (No. 1), ligand responsive reporter gene (firefly luciferase, pGV-Ya-XREx5), clone of Example 2
# Format: cell-based, mouse
# Conditions: about 40 hours; for Amount of luminescence by firefly luciferase (from pGV-Ya-XREx5) Ratio: ratio to 0 pg/ml
# From the text: Separately, plasmid pGV-Ya-XREx5 (ligand responsive reporter gene containing plasmid) constructed in Example 1 was digested with Bam HI. Further, plasmid pRL-TK (cell number reporter gene containing plasmid; marketed by Toyo Ink) containing the sea pansy luciferase gene used as the cell number reporter gene was digested with Bam HI, and neomycin resistance (aminoglycoside phosphotransferase) gene containing plasmid pRc/RSV (available from INVITROGEN) was digested with Hind III. These three digested plasmids, i.e., Bam HI digested pGV-Ya-XREx5 (2.8 µg), Bam HI digested pRL-TK (2.8 µg), and Hind III digested pRc/RSV (0.5 µg), were then mixed with 300 µl of αMEM medium (mixture A), while 36 µl of lipofectin (available from GIBCO-BRL) was mixed with 300 µl of αMEM medium (mixture B). After being left at room temperature for 30 minutes, mixtures A and B were combined together and left at room temperature for 10 minutes. The Hepa1clc7 cells cultured overnight as described above were then washed once with αMEM medium, to which there was added a solution prepared by adding and mixing additional 5.4 ml of αMEM medium to the above mixture (A + B). Culturing of the resulting mixture was carried out for 5 hours. The medium was then replaced with 10% serum containing αMEM medium, followed by further culturing overnight. Subsequently, the cells were scratched from the petri dishes and collected, and the collected cells were suspended in 10% serum containing αMEM medium to have the total volume of 100 ml. The resulting cell suspension was plated on 96 well plates at a ratio of 100 µl/well. After these plates were cultured overnight, a medium prepared by dissolving geneticin (hereinafter referred to as "G418") in 10% serum containing αMEM medium to have a concentration of 1.6 mg/ml was added at a ratio of 100 µl/well (G418 final concentration 800 µg/ml). Culturing was further continued for 3 weeks, during which the medium was replaced with 10% serum containing αMEM medium containing 800 µg/ml G418 at a rate of once per week. The volume of the medium was set at 200 µl/well. After said 3 weeks, cells were scratched from the wells in which colony formation had been observed, and collected (for 192 wells), and the collected cells were divided into three and independently plated on different plates, followed by continuous culturing for 4 days. To the first plate, only DMSO was added (solvent control), and to the second plate, 3-methylcholanthrene (hereinafter referred to as "3-MC") dissolved in DMSO was added so that the final concentration of 3-MC in the second plate came to 10 µM per well. The first and second plates were then cultured overnight. The third plate was further cultured as the master plate without any addition. From each well of each plate, to which DMSO or 3-MC had been added, the medium was removed, and the wells were washed twice with PBS(-) (sodium chloride, 8000 mg/l; potassium chloride, 200 mg/l; sodium monohydrogenphosphate (anhydrous), 1150 mg/l; […] dihydrogenphosphate (anhydrous), 200 mg/l; marketed by Nissui Pharmaceutical). A 5-fold diluted cell lysis buffer of PicaGene dual kit (marketed by Toyo Ink) was added to the wells in 15 µl/well, followed by leaving the plates at room temperature for 30 minutes or longer to cause cell lysis, to give cell extracts. These plates were set on a luminometer LB96P with an automatic enzyme substrate injector (available from Berthold), and PicaGene luminescence reagent II and sea pansy luminescence reagent (PicaGene dual kit, marketed by Toyo Ink) were automatically dispensed each in 50 µl, followed by continuous measurement for the amount of luminescence.
# The clone screened in Example 2 was plated on 96-well plates at a ratio of 40,000 cells/well, followed by culturing overnight. […]
smiles,measurement,setting,value
"Clc1cc2c(cc1Cl)Oc1cc(Cl)c(Cl)cc1O2 [TCDD, 2,3,7,8-tetrachlorodibenzo-p-dioxin]",Amount of luminescence by firefly luciferase (from pGV-Ya-XREx5) Measured value,final conc. 0.02 pg/ml,0.517 x 10^4
same,Amount of luminescence by firefly luciferase (from pGV-Ya-XREx5) Ratio,final conc. 0.02 pg/ml,1.1
same,Amount of luminescence by firefly luciferase (from pGV-Ya-XREx5) Measured value,final conc. 0.2 pg/ml,0.532 x 10^4
same,Amount of luminescence by firefly luciferase (from pGV-Ya-XREx5) Ratio,final conc. 0.2 pg/ml,1.1
same,Amount of luminescence by firefly luciferase (from pGV-Ya-XREx5) Measured value,final conc. 2 pg/ml,0.873 x 10^4
same,Amount of luminescence by firefly luciferase (from pGV-Ya-XREx5) Ratio,final conc. 2 pg/ml,1.8
same,Amount of luminescence by firefly luciferase (from pGV-Ya-XREx5) Measured value,final conc. 20 pg/ml,3.14 x 10^4
same,Amount of luminescence by firefly luciferase (from pGV-Ya-XREx5) Ratio,final conc. 20 pg/ml,6.5
same,Amount of luminescence by firefly luciferase (from pGV-Ya-XREx5) Measured value,final conc. 200 pg/ml,4.46 x 10^4
same,Amount of luminescence by firefly luciferase (from pGV-Ya-XREx5) Ratio,final conc. 200 pg/ml,9.2
same,Amount of luminescence by firefly luciferase (from pGV-Ya-XREx5) Measured value,final conc. 2000 pg/ml,4.17 x 10^4
same,Amount of luminescence by firefly luciferase (from pGV-Ya-XREx5) Ratio,final conc. 2000 pg/ml,8.6
same,Amount of luminescence by firefly luciferase (from pGV-Ya-XREx5) Measured value,final conc. 20000 pg/ml,4.49 x 10^4
same,Amount of luminescence by firefly luciferase (from pGV-Ya-XREx5) Ratio,final conc. 20000 pg/ml,9.2
